Measurements taken from ChEMBL document CHEMBL1275601, “Striking species difference in the contribution of concentrative nucleoside transporter 2 to nucleoside uptake between mouse and rat hepatocytes” (Antimicrob Agents Chemother, 2010).
The source made the active and inactive calls. The rule behind the calls is not given here.

Key:
Type in all cases: cell-based
[1] = molecular target: T1, Equilibrative nucleoside transporter 1 (Rattus norvegicus) (UniProt O54698); test: Transport through ENT1 in rat hepatocytes by oil filtration assay in presence 100 nM of transporter inhibitor NBMRP; settings: Hepatocyte
T1 sequence (whole entry): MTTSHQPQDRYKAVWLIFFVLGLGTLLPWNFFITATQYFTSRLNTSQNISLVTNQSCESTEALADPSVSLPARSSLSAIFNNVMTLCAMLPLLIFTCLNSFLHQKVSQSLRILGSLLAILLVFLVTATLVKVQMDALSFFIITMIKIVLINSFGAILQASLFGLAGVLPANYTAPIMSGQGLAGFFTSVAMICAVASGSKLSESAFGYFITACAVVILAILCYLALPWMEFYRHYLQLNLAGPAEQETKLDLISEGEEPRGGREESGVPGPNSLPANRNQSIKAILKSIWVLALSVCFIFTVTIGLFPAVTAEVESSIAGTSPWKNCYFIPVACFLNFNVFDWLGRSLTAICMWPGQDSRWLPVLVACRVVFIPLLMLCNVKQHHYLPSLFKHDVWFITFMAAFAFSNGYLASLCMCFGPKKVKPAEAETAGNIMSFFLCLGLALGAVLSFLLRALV

[2] = molecular target: T2, Sodium/nucleoside cotransporter 2 (Rattus norvegicus) (UniProt Q62773); test: Transport through CNT2 in rat hepatocytes by oil filtration assay in presence of sodium ions in Kreb-henseleit buffer; settings: Hepatocyte
T2 sequence (whole entry): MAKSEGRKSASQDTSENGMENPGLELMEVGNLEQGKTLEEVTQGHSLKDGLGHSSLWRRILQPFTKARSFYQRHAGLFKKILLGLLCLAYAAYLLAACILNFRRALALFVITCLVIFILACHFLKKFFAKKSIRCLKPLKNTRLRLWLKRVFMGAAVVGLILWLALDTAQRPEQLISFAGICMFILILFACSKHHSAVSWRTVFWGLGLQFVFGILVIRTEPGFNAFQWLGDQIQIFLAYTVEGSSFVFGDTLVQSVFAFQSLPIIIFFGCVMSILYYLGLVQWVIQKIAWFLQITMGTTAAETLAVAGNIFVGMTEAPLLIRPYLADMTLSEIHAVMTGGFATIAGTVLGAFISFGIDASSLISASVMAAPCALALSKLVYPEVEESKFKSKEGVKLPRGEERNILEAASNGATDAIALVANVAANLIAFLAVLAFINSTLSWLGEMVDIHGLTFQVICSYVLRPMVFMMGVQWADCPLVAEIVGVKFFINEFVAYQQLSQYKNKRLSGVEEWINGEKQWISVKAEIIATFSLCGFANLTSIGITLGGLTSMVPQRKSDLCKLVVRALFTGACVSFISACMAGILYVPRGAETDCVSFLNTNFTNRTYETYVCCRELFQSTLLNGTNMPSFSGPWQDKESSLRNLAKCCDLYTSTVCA

[3] = molecular target: T3, Equilibrative nucleoside transporter 1 (Mus musculus) (UniProt Q9JIM1); test: Transport through ENT1 in mouse hepatocytes by oil filtration assay in presence 100 uM of transporter inhibitor NBMRP; settings: Hepatocyte
T3 sequence (whole entry): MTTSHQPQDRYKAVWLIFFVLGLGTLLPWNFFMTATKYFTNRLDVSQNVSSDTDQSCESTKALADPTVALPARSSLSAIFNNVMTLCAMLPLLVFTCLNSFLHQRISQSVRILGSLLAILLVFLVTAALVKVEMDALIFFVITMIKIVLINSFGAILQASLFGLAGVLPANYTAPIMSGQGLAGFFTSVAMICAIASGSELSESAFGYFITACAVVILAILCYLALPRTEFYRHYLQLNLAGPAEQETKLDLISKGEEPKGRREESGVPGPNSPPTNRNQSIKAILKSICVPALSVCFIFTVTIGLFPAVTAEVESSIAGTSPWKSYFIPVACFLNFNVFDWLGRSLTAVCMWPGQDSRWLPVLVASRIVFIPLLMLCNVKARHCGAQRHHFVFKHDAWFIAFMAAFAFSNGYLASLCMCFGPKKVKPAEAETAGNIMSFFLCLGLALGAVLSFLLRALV

[4] = molecular target: T4, Sodium/nucleoside cotransporter 2 (Mus musculus) (UniProt O88627); test: Transport through CNT2 in mouse hepatocytes by oil filtration assay in presence of sodium ions in Kreb-henseleit buffer; settings: Hepatocyte
T4 sequence (whole entry): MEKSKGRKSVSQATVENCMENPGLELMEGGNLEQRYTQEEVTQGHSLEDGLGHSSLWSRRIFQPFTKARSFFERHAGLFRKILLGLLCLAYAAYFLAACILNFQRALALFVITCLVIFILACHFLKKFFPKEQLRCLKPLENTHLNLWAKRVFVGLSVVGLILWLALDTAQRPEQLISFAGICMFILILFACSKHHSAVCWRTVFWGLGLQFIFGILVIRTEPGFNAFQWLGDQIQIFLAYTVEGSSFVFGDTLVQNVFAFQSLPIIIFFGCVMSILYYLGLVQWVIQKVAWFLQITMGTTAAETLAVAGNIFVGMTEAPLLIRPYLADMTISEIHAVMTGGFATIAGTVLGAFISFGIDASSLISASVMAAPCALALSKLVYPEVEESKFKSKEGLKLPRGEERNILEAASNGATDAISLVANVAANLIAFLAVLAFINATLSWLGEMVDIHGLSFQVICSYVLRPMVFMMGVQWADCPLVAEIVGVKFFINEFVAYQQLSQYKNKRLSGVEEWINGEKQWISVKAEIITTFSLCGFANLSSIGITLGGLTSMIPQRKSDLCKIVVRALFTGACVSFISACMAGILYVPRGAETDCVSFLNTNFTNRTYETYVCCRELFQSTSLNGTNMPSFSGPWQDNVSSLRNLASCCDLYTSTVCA

[5] = molecular target: T5, Equilibrative nucleoside transporter 2 (Rattus norvegicus) (UniProt O54699); test: Transport through ENT2 in rat hepatocytes by oil filtration assay in presence of sodium ions in Kreb-henseleit buffer containing 100 uM NBMPR; settings: Hepatocyte
T5 sequence (whole entry): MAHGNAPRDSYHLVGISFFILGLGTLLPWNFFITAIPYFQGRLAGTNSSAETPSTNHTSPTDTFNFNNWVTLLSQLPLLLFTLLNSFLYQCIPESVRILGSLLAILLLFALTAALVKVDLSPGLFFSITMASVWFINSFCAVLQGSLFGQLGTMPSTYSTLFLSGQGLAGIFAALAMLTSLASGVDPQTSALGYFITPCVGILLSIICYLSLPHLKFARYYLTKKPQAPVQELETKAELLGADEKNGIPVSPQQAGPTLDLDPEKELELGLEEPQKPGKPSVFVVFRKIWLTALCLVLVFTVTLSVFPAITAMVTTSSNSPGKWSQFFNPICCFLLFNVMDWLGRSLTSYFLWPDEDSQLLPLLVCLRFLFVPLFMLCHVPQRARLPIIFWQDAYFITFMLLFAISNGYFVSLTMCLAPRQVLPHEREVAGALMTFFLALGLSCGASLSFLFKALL

Hepatocyte = test: Transport through CNT3 in rat hepatocytes by oil filtration assay in presence of sodium ions in Kreb-henseleit buffer containing 100 uM NBMPR and 1 mM inosine

SMILES	Activity [1]	Activity [2]	Activity [3]	Activity [4]	Activity [5]	Activity (Hepatocyte)
Nc1ncnc2c1ncn2[C@@H]1O[C@H](CO)[C@@H](O)[C@H]1O	inactive	Active	inactive	inactive	Active	inactive
NC(=O)c1ncn([C@@H]2O[C@H](CO)[C@@H](O)[C@H]2O)n1	inactive	Active	inactive	inactive	Active	inactive
